From patent US20230151437A1, “USE OF PROTEIN ASSEMBLIES TO RECORD CELLULAR EVENTS” (President and Fellows of Harvard College, priority 2021, published 2023)

Key:
[1] = tested on: Tet-ON transcription system; test: Ticker tape recording of DOX activation of the Tet-ON system in HEK cells; format: cell-based
Experimental: FIGS. 16A-16B show recordings of impulse response of protein expression following pulsed doxycycline (DOX) activation in HEK293T cells. […] Transitions to JF669 at t=0 and to JFX608 at t=8 h provided fiducial timestamps. Transcription was activated via addition of 2 μg/mL DOX at t=−0.5 h, followed by a thorough wash at t=0 h. FIG. 16B provides three representative examples showing the GFP intensity profiles on the protein ticker tapes. Top: representative images. Bottom: fluorescence line profiles. Scale bars: […].
As the first test of a physiological recording, iPAK4 assemblies were used to report on a transcriptional activator, the tetracycline mediated Tet-ON transcription system.^28 HEK cells were co-infected with lentivirus containing CMV::iPAK4 (60%), CMV::rTTA3 (30%), CMV::HT-iPAK4 (5%), and CMV::eGFP-iPAK4 (5%) to establish tetracycline-dependent eGFP-iPAK4 expression (FIG. 4A). After assemblies had nucleated (24 h after lentiviral infection), JF552 was added to label the initial nuclei, and JF669 was added at t=0. In different dishes, doxycycline (DOX, 2 μg/mL) was added at t=2, 4, or 6 h to activate expression of eGFP-iPAK4. Then JF552 was added again at t=8 h, and the assemblies were grown for another 8-14 h before fixation and imaging (FIG. 4B).

[2] = tested on: cFos promoter; test: Ticker tape recording of PMA activation of cFos in neurons; format: cell-based, rat
Description: In neurons co-expressing CMV::iPAK4 (90%) and cFos::eGFP-iPAK4 (10%), assemblies initially grew with little green fluorescence. […] Sequential additions of PMA to a single dish led to distinct bands of eGFP fluorescence, clearly resolved by sharp eGFP boundaries (FIG. 5G).
To measure timing of cFos activation relative to fiducial timestamps, CMV::iPAK4 (80%), CMV::HT-iPAK4 (10%), and cFos::eGFP-iPAK4 (10%; FIG. 5E) were co-expressed. The neurons were stained with JF552, and then switched to JF669 at t=0. PMA (1 μM) was then added at t=3, 6, or 9 h, and a second fiducial timestamp was introduced by switching back to JF552 at t=12 h. Assemblies were grown until t=22 h and then fixed and imaged (FIG. 5F).
Chemical activation of neuronal activity: The cFos promoter was activated by phorbol 12-myristate 13-acetate (PMA; Sigma Aldrich P8139). Briefly, the PMA was first diluted with DMSO to form a 1 mM stock solution. At the designated time, 2 μl PMA stock was directly added to each 14 mm glass-bottom culture dish, which contained 2 ml BPNM/SM1 medium. The dishes were then stirred gently to mix the PMA and medium. After PMA addition, the dishes were returned to an incubator at 37° C. with 5% CO2.

[3] = target: T1, intracellular HT receptors (HT-NLS) (Rhodococcus rhodochrous, UniProt P0A3G2, A155T/A167V/A172T/A224E/C128F/C176G/D78G/E160K/E257K/H272N/K175M/K195N/L47V/L88M/N227D/P291S/S2A/S58T/T264A/Y273L/Y87F); test: Kinetics of HT dye labeling in HEK293T cells expressing HT-NLS; format: cell-based; details: for effective time constant of HT dye labeling: 1 μM dye, HEK293T cells; for first-order reaction rate constant of HT dye labeling: HEK293T cells expressing HT-NLS, 0.1 μM dye, combined membrane permeation and HT reaction
T1 construct: host or cells: HEK293T
Experimental: FIGS. 13A-13C show kinetics of HT dye labeling and turnover in HEK293T cells. […] The sharpness of the dye transition was 7.5 min, as calculated by the width of the peak in the second derivative of fluorescence vs. position (purple). FIGS. 13B-13C show kinetics of HT dye reaction in HEK293T cells. HEK293T cells expressing a nucleus-targeted HT construct (HT-NLS, Addgene #82518) were incubated with 0.1 μM of the indicated dye (FIG. 3B) or 1 μM of the indicated dye (FIG. 3C), and nuclear fluorescence was monitored as a function of time. In FIG. 3B, HT-iPAK4 labeling experiments were performed with 10-fold higher dye concentrations (1 μM).
Dye additions appeared as upward-going kinks in the fluorescence profiles (FIGS. 12D, 13A), which were located as peaks in the second derivative of fluorescence vs. position. By dividing the transition zone widths (full-width at half-maximum of the peak in the second derivative) by the assembly-specific growth rates, a mean transition zone duration of 7.5 min was calculated (FIG. 13A). To determine whether the kinetics of HT dye labeling affected the widths of these transitions, the labeling of intracellular HT receptors was measured with several different HT dyes. These measurements probed the combined effects of membrane permeation and the HT reaction. The first-order reaction rate constants were 2.9 μM^−1 min^−1 (JF525), 0.13 μM^−1 min^−1 (JFX608), and 0.27 μM^−1 min^−1 (JF669) (FIG. 13B). […] The effective time constants at 1 μM dye were: 43 min (JF503), 3.5 min (JF525), 2.0 min (JF552), 12 min (JFX608), and 17 min (JF669) (FIGS. 13A and 13C). The precision of localizing a dye transition in an assembly is not equal to the labeling time constant, but rather the precision with which one can identify the onset of the labeling reaction. For all the JF dyes, this time was much less than 10 min.
Measurements of HT dye labeling kinetics in HEK293T cells: HEK293T cells were transfected with an inducible nuclear-localized HT protein (HT-NLS, Addgene #82518). Doxycycline (DOX, 2 μg/ml) was added 12 h after transfection to induce the expression of HT-NLS. 24 h after transfection, cells were incubated with 0.1 μM of the indicated dye, and nuclear fluorescence was monitored via wide-field epifluorescence microscopy as a function of time.

T1 sequence (P0A3G2 other isoform, or with tags, fused parts or gaps with the stated changes): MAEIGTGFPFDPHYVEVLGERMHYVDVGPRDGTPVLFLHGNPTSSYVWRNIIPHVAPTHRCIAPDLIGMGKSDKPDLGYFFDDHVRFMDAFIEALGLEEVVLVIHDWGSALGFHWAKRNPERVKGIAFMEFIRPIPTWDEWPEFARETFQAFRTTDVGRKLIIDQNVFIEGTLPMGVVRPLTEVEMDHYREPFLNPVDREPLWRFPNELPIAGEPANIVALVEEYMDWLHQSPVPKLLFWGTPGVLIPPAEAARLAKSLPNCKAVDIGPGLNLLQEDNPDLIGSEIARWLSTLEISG

C[C@H]1c2cccc(O)c2C(=O)C2=C(O)[C@]3(O)C(=O)C(C(N)=O)=C(O)[C@@H](N(C)C)[C@@H]3[C@@H](O)[C@@H]21 [DOX, doxycycline]
duration of rise of eGFP-iPAK4 expression ([1]; 30-minute pulse of DOX): approximately 8 h
window of protein expression ([1]; 30-minute pulse of DOX): ~14 h
offset between DOX addition and start of the green stripe (y-intercept of linear fit) ([1]; DOX 2 μg/mL at t=2, 4 or 6 h, HEK cells, N=191 assemblies): 1.2 h

CCCCCCCCCCCCCC(=O)O[C@@H]1[C@@H](C)[C@@]2(O)[C@@H](C=C(CO)C[C@]3(O)C(=O)C(C)=C[C@@H]23)[C@@H]2C(C)(C)[C@]12OC(C)=O [PMA, phorbol 12-myristate 13-acetate]
delay of eGFP onset relative to PMA addition ([2]; PMA 1 μM at t=3, 6 or 9 h, neurons, extrapolated fit): 53 min
effect on cFos::eGFP-iPAK4 expression ([2]; PMA 1 μM, neurons co-expressing CMV::iPAK4 and cFos::eGFP-iPAK4): bands of bright green fluorescence
y-intercept of linear fit of eGFP onset ([2]; PMA at t=3, 6 or 9 h, neurons): ca. 1.0 h

JF525 [reference compound]
effective time constant of HT dye labeling [3]: 3.5 min
first-order reaction rate constant of HT dye labeling [3]: 48300 M⁻¹ s⁻¹

JFX608-HaloTag ligand
effective time constant of HT dye labeling [3]: 12 min
first-order reaction rate constant of HT dye labeling [3]: 2170 M⁻¹ s⁻¹
